Literature values in paper PMC9284491 (Nature Communications, 2022).

Legend:
ER = target: T1, ER (Homo sapiens, UniProt P03372); details: maximum 500 mg dose; cited from earlier work
T1 sequence (P03372 1-595): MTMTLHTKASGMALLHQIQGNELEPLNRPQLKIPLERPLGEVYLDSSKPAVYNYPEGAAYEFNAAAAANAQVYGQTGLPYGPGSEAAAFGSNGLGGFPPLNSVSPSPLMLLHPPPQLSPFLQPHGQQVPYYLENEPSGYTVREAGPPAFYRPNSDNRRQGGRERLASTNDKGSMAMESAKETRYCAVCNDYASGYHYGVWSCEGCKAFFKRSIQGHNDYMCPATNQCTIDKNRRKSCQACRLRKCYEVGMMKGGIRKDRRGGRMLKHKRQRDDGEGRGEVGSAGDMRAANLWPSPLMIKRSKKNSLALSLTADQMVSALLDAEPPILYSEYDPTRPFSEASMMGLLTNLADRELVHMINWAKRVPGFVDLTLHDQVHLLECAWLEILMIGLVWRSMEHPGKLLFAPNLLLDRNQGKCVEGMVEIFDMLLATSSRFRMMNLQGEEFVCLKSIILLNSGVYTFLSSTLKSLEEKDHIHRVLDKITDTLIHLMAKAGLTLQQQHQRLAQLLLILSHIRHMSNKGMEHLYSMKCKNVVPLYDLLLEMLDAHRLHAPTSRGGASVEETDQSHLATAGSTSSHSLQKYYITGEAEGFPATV

[1] = 500 mg intramuscular (day 1, day 14 of cycle 1, monthly from cycle 2); cited from earlier work

## C[C@]12CC[C@@H]3c4ccc(O)cc4C[C@@H](CCCCCCCCC[S+]([O-])CCCC(F)(F)C(F)(F)F)[C@H]3[C@@H]1CC[C@@H]2O (some centres unmarked) [fulvestrant]
ER
  ER occupancy at maximum dose: does not fully occupy the ER
[1]
  Ctrough at steady state: 12.5 ng/mL
